One data set can be described thus: Solubility of apremilast. Type of data set: physicochemical. The source says:
Apremilast is insoluble in water. Even in polar solvent phase, only 0.066% of apremilast was found soluble. Therefore, it is challenging to formulate a topical composition of apremilast having an amount, which provides effective concentration of apremilast at the site of action.

For data set [1] the following is noted: cited from earlier work.
The conditions of data set [2]: oral Apremilast; cited from earlier work.

For `CCOc1cc([C@@H](CS(C)(=O)=O)N2C(=O)c3cccc(NC(C)=O)c3C2=O)ccc1OC` [Apremilast, N-{2-[(1S)-1-(3-Ethoxy-4-methoxyphenyl)-2-(methylsulfonyl)ethyl]-1,3-dioxo-2,3-dihydro-1H-isoindol-4-yl} acetamide], the “apremilast found soluble in polar solvent phase” value in “Solubility of apremilast” is 0.066%. Also, in data set [1], the solubility in water result is on record as “insoluble”. In addition, the “most commonly reported adverse reactions” value in data set [2] is “Diarrhea, nausea and headache”.

Values taken from patent US20190175491A1, “TOPICAL COMPOSITIONS OF APREMILAST” (TORRENT PHARMACEUTICALS LIMITED, priority 2016, published 2019).
